Earlier results as cited in US20250213575A1, “8-HETEROCYCLIC-3-(PHENYLSULFONYL)-[1,2,3]TRIAZOLO[1,5A]QUINAZOLIN-5(4H)-ONE DERIVATIVES AS ANTI-BACTERIALS” (priority 2022, published 2025).

Test system: AgrA-regulated toxin gene transcription such as hla, psma and pvl
Details: across all four agr groups; cited from earlier work

## CC(C)c1ccc(S(=O)(=O)c2nnn3c2nc(O)c2ccccc23)cc1 [Savirin]
  modulation of AgrA-regulated toxin gene transcription: potent modulator
